test: logP determination by HPLC on a reversed-phase column (EEC Directive 79/831 Annex V.A8); format: physicochemical; conditions: reversed-phase C18 HPLC column, reversed-phase column (C 18), 43° C., acidic range (a): 0.1% aqueous phosphoric acid, acetonitrile gradient 10% to 90%
Protocol: [table] Calibration was carried out using unbranched alkan-2-ones (having 3 to 16 carbon atoms) with known logP values (determination of the logP values by the retention times using linear interpolation between two successive alkanones).

Row | chromatographic logP | SMILES
1 | 3.42 | CO/N=C/c1cccc(-c2ccccc2NC(=O)c2sc(C)nc2C(F)(F)F)c1 [Example 2]
2 | 4.65 | CCCCO/N=C\c1ccc(-c2ccccc2NC(=O)c2sc(C)nc2C(F)(F)F)cc1 [Example 3]
3 | 4.23 | Cc1nc(C(F)(F)F)c(C(=O)Nc2ccccc2-c2ccc(/C=N\OC(C)C)cc2)s1 [Example 5]
4 | 3.24 | CO/N=C\c1ccc(-c2ccccc2NC(=O)c2c(C)nn(C)c2Cl)cc1 [Example 17]
5 | 5.1 | CO/N=C\c1ccc(-c2ccccc2NC(=O)c2cn(C)cc2C)cc1 [Example 19]
6 | 4.26 | CCCCO/N=C/c1ccc(-c2ccccc2NC(=O)c2cn(C)nc2C(F)(F)F)cc1 [Example 22]
7 | 4.26 | CCCO/N=C/c1ccc(-c2ccccc2NC(=O)c2sc(C)nc2C(F)(F)F)cc1 [Example 23]
8 | 3.86 | CCCO/N=C/c1ccc(-c2ccccc2NC(=O)c2cn(C)nc2C(F)(F)F)cc1 [Example 28]
9 | 2.78 | Cc1nc(C(F)(F)F)c(C(=O)Nc2ccccc2-c2ccc(/C=N\O)cc2)s1 [Example 30]
10 | 3.84 | CO/N=C/c1ccc(-c2ccccc2NC(=O)c2sc(N(C)C)nc2C(F)(F)F)cc1 [Example 32]
11 | 4.12 | CO/N=C/c1ccc(-c2ccccc2NC(=O)c2cccnc2OC)cc1 [Example 33]
12 | 4.73 | CO/N=C/c1ccc(-c2ccccc2NC(=O)c2ccc(OC)nc2OC)cc1 [Example 34]
13 | 2.04 | CO/N=C/c1ccc(-c2ccccc2NC(=O)c2cccnc2C)cc1 [Example 35]
14 | 3.75 | CO/N=C/c1ccc(-c2ccccc2NC(=O)c2ccccc2C(F)(F)F)cc1 [Example 36]
15 | 4.08 | CO/N=C/c1ccc(-c2ccccc2NC(=O)c2sc(Cl)nc2C(F)(F)F)cc1 [Example 37]
16 | 3.59 | CO/N=C/c1ccc(-c2ccccc2NC(=O)c2ccccc2Cl)cc1 [Example 38]
17 | 3.61 | CO/N=C/c1ccc(-c2ccccc2NC(=O)c2ccccc2Br)cc1 [Example 39]
18 | 3.56 | CO/N=C/c1ccc(-c2ccccc2NC(=O)c2ccccc2C)cc1 [Example 40]
19 | 3.19 | Cn1cc(C(=O)Nc2ccccc2-c2ccc(/C=N\O)cc2)c(C(F)(F)F)n1 [Example 41]
20 | 3.47 | CO/N=C/c1ccc(-c2ccccc2NC(=O)c2ccoc2C)cc1 [Example 42]
21 | 3.47 | CO/N=C/c1cccc(-c2ccccc2NC(=O)c2ccoc2C)c1 [Example 43]
22 | 3.76 | CO/N=C/c1cccc(-c2ccccc2NC(=O)c2ccccc2C(F)(F)F)c1 [Example 44]
23 | 3.73 | CO/N=C/c1ccc(-c2ccccc2NC(=O)c2ccccc2I)cc1 [Example 45]

Row | chromatographic logP | SMILES
24 | 3.73 | CO/N=C/c1cccc(-c2ccccc2NC(=O)c2ccccc2I)c1 [Example 46]
25 | 3.86 | CO/N=C/c1ccc(-c2ccccc2NC(=O)c2sccc2C)cc1 [Example 47]
26 | 3.84 | CO/N=C/c1cccc(-c2ccccc2NC(=O)c2sccc2C)c1 [Example 48]
27 | 3.54 | CO/N=C/c1ccc(-c2ccccc2NC(=O)c2cn(C)nc2C(F)(F)F)cc1Cl [Example 49]
28 | 3.36 | CO/N=C\c1cc(-c2ccccc2NC(=O)c2cn(C)nc2C(F)(F)F)ccc1/C=N/OC [Example 50]
29 | 3.78 | CO/N=C/c1ccc(-c2c(C)cccc2NC(=O)c2sc(C)nc2C(F)(F)F)cc1 [Example 51]
30 | 3.25 | CO/N=C/c1cccc(-c2ccccc2NC(=O)c2cn(C)nc2C(F)(F)F)c1 [Example 52]
31 | 3.75 | CO/N=C/c1ccc(-c2ccccc2NC(=O)C2=C(C)OCCS2)cc1 [Example 53]
32 | 3.2 | CO/N=C/c1ccc(-c2ccccc2NC(=O)c2ccco2)cc1 [Example 54]
33 | 3.2 | CO/N=C/c1cccc(-c2ccccc2NC(=O)c2ccco2)c1 [Example 55]
34 | 4.39 | CO/N=C/c1ccc(-c2ccccc2NC(=O)c2sccc2Br)cc1 [Example 56]
35 | 4.39 | CO/N=C/c1cccc(-c2ccccc2NC(=O)c2sccc2Br)c1 [Example 57]
36 | 3.37 | CO/N=C/c1cccc(-c2ccccc2NC(=O)c2c(C)nn(C)c2Cl)c1 [Example 58]
37 | 3.64 | CO/N=C/c1cccc(-c2ccccc2NC(=O)C2=C(C)OCCS2)c1 [Example 59]
38 | 3.26 | CO/N=C/c1ccc(-c2ccccc2NC(=O)c2sc(C)nc2C(F)F)cc1 [Example 60]
39 | 3.26 | CO/N=C/c1cccc(-c2ccccc2NC(=O)c2sc(C)nc2C(F)F)c1 [Example 61]
40 | 3.99 | CO/N=C/c1ccc(-c2ccccc2NC(=O)c2ccc(C(F)(F)F)o2)cc1 [Example 62]
41 | 4.02 | CO/N=C/c1cccc(-c2ccccc2NC(=O)c2ccc(C(F)(F)F)o2)c1 [Example 63]
42 | 3.94 | CO/N=C/c1ccc(-c2ccccc2NC(=O)c2cc(C)oc2C(F)(F)F)cc1 [Example 64]
43 | 3.97 | CO/N=C/c1cccc(-c2ccccc2NC(=O)c2cc(C)oc2C(F)(F)F)c1 [Example 65]
44 | 3.82 | CO/N=C/c1ccc(-c2ccccc2NC(=O)c2cn(C)cc2C(C)C)cc1 [Example 66]
45 | 3.75 | CO/N=C/c1ccc(-c2ccccc2NC(=O)c2sc(Cl)nc2C)cc1 [Example 67]
46 | 3.75 | CO/N=C/c1cccc(-c2ccccc2NC(=O)c2sc(Cl)nc2C)c1 [Example 68]

Row | chromatographic logP | SMILES
47 | 4.45 | CO/N=C/c1cccc(-c2ccccc2NC(=O)c2nc(C)oc2C(F)(F)F)c1 [Example 70]
48 | 3.78 | CO/N=C/c1ccc(-c2ccccc2NC(=O)c2ccc(Br)o2)cc1 [Example 71]
49 | 3.8 | CO/N=C/c1cccc(-c2ccccc2NC(=O)c2ccc(Br)o2)c1 [Example 72]
50 | 4 | CO/N=C/c1cccc(-c2ccccc2NC(=O)c2sc(N(C)C)nc2C(F)(F)F)c1 [Example 73]
51 | 3.95 | CO/N=C/c1ccc(-c2ccccc2NC(=O)c2sc(C)nc2C(F)(F)F)cc1Cl [Example 74]
52 | 4.77 | CCCCO/N=C(/C)c1ccc(-c2ccccc2NC(=O)c2sc(C)nc2C(F)(F)F)cc1 [Example 77]
53 | 3.68 | CCc1nn(C)c(Cl)c1C(=O)Nc1ccccc1-c1ccc(/C=N/OC)cc1 [Example 95]
54 | 3.72 | CCc1nn(C)c(Cl)c1C(=O)Nc1ccccc1-c1cccc(/C=N/OC)c1 [Example 96]
55 | 3.76 | CO/N=C/c1ccc(-c2ccccc2NC(=O)c2c(C3CC3)nn(C)c2Cl)cc1 [Example 97]
56 | 3.81 | CO/N=C/c1cccc(-c2ccccc2NC(=O)c2c(C3CC3)nn(C)c2Cl)c1 [Example 98]
57 | 4.67 | CO/N=C/c1ccc(-c2ccccc2NC(=O)c2cc(Cl)sc2Cl)cc1 [Example 99]
58 | 4.72 | CO/N=C/c1cccc(-c2ccccc2NC(=O)c2cc(Cl)sc2Cl)c1 [Example 100]
59 | 3.26 | CO/N=C/c1ccc(-c2ccccc2NC(=O)c2ccc([N+](=O)[O-])o2)cc1 [Example 101]
60 | 3.26 | CO/N=C/c1cccc(-c2ccccc2NC(=O)c2ccc([N+](=O)[O-])o2)c1 [Example 102]
61 | 3.87 | CCn1nc(C)c(C(=O)Nc2ccccc2-c2ccc(/C=N/OC)cc2)c1Cl [Example 103]
62 | 3.1 | CO/N=C/c1ccc(-c2ccccc2NC(=O)c2ccsc2)cc1 [Example 108]
63 | 3.58 | CO/N=C/c1ccc(-c2ccccc2NC(=O)c2ccsc2C)cc1 [Example 110]
64 | 3.59 | CO/N=C/c1cccc(-c2ccccc2NC(=O)c2ccsc2C)c1 [Example 111]
65 | 3.21 | CO/N=C/c1ccc(-c2ccccc2NC(=O)c2cn(C)nc2C(F)(F)F)cc1F [Example 112]
66 | 2.43 | CO/N=C/c1ccc(-c2ccccc2NC(=O)c2cccnc2O)cc1 [Example 113]
67 | 3 | CO/N=C/c1ccc(-c2ccccc2NC(=O)c2cn(C)nc2C(F)F)cc1F [Example 114]
68 | 4.22 | CCCO/N=C/c1ccc(-c2ccccc2NC(=O)c2c(C)nn(C)c2Cl)cc1 [Example 118]

Reference: patent publication US7176228B2, “Pyrazole biphenylcarboxamides” (Bayer Cropscience AG, priority 2000, dated 2007)
